# From ChEMBL document CHEMBL1201862, “PubChem BioAssay data set” (2004)
# Activity calls are given as the source filed them.
# Legend:
# [1] = target: T1, Heat shock factor protein 1 (Mus musculus, UniProt P38532); test: enhancement of HSF1-driven luciferase signal – cell-based, NIH3T3, luminescence, dose retest, confirmation (AID 435004); type: functional;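 also: stress induced by proteasome inhibitor MG132 added 30 min after compound; luciferase reporter driven by HSF1 response element in NIH3T3 cells; actives raise luminescence as potentiators of the MG132 stress response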
# T1 sequence (P38532 whole entry): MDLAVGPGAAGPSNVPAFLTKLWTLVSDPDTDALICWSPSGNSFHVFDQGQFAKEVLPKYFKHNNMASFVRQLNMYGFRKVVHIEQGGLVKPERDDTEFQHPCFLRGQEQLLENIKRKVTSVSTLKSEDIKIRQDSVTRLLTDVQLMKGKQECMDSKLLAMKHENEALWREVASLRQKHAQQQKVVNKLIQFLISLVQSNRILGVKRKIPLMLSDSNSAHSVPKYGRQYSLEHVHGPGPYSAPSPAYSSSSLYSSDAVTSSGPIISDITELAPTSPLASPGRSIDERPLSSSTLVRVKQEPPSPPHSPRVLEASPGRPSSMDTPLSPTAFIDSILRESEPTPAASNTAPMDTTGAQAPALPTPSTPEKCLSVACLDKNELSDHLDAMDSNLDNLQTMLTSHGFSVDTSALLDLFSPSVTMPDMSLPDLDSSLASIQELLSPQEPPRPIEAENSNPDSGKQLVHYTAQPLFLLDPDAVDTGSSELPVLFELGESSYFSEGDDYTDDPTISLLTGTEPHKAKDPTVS
# [2] = target: 1-phosphatidylinositol 4,5-bisphosphate phosphodiesterase gamma-1 (Homo sapiens, UniProt P19174); test: Counterscreen for inhibitors of phospholipase C isozymes (PLC-B3): Fluorescence-based biochemical high throughput dose response assay to identify inhibitors of phospholipase C isozymes (PLC-gamma1).
# [3] = target: 1-phosphatidylinositol 4,5-bisphosphate phosphodiesterase beta-3 (Homo sapiens, UniProt Q01970); test: Fluorescence-based biochemical high throughput dose response assay to identify inhibitors of phospholipase C isozymes (PLC-B3).
# [4] = Luminescence Cell-Based Dose Response to Identify Activators of Luciferase Translation or Activity in H4-C Neuroglioblastoma Cells. [Related pubchem assays: 1829 (Project Summary), 1814 (Primary HTS)]; type: functional
# [5] = Luminescence Cell-Based Dose Response to Identify Activators of 5'UTR Stem-Loop Driven Prion Protein mRNA Translation in H4-C Neuroglioblastoma Cells. [Related pubchem assays: 1829 (Project Summary), 1814 (Primary HTS)]; type: functional
# [6] = tested on: H4; test: Luminescence Cell-Based Dose Response HTS to Identify Activators of 5'UTR Stem-Loop Driven Prion Protein mRNA Translation in H4 Neuroglioblastoma Cells. [Related pubchem assays: 1829 (Project Summary), 1814 (Primary HTS)]; type: functional; conditions: Homo sapiens
# [7] = Luminescence Cell-Based Dose Response HTS to Identify Activators of Luciferase Translation or Activity in H4 […] Cells. [Related pubchem assays: 1829 (Project Summary), 1814 (Primary HTS)]; type: functional
# [8] = target: T2, Polyadenylate-binding protein 1 (Homo sapiens, UniProt P11940); test: MLLE binding blockers, Cy5 peptide tracer – biochemical, fluorescence polarization, Cy5-PAM2 peptide, secondary, miRNA deadenylation inhibitor project, dose response (AID 602260); type: functional; conditions: read-out: IC50_Mean
# [9] = Luminescence Cell-Based Dose Confirmation to Identify Activators of 5'UTR Stem-Loop Driven Alpha-Synuclein mRNA Translation in H4 Neuroglioblastoma Cells. [Related pubchem assays: 1829 (Project Summary), 1814 (Primary HTS)]; type: functional
# [10] = target: T2, Polyadenylate-binding protein 1; test: MLLE domain peptide-binding blockers, IC50 – biochemical, fluorescence polarization, FITC-PAM2 peptide, dose response (AID 602259); type: functional; conditions: read-out: IC50_Mean
# [11] = target: Oxysterols receptor LXR-beta (Homo sapiens, UniProt P55055); type: functional, cell-based;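 also: Cell-based luminescence dose-response assay of agonist activity at LXR, run as a confirmatory counterscreen to a daf-12 agonist screen; HEK293 cells with Gal4-LXR fusion and GAL4-driven luciferase reporter; agonist potency from rising luciferase signal of a Gal4-LXR reporter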
# [12] = cells
# [13] = cells; type: functional, cell-based
# [14] = cells; type: functional, cell-based; remark: listed apart in the source
# [15] = target: T3, Trace amine-associated receptor 1 (Homo sapiens, UniProt Q96RJ0); test: Counterscreen for agonists of the human trace amine associated receptor 1 (hTAAR1): Fluorescence-based cell-based high throughput dose response assay to identify hTAAR1 agonist that also desensitize TAAR1 receptor response.; type: functional
# T3 sequence (Q96RJ0 whole entry): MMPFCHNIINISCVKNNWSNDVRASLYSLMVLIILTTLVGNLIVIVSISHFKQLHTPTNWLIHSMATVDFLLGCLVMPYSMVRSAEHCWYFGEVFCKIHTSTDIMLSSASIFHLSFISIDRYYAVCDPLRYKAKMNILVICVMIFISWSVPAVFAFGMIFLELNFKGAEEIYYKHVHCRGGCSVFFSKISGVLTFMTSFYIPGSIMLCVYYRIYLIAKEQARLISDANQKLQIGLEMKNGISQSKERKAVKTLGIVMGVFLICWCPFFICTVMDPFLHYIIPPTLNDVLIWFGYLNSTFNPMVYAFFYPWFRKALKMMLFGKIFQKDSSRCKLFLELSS
# [16] = target: T3, Trace amine-associated receptor 1; test: Fluorescence-based cell-based high throughput dose response assay to identify agonists of the human trace amine associated receptor 1 (TAAR1).; type: functional
# [17] = general mammalian cell viability loss – inhibitor set, cherry-pick, set 2, cytotoxicity control for miR-122 modulator project, dose response (AID 720697); type: functional, cell-based
# [18] = target: Beta-galactosidase (Escherichia coli, UniProt Q8VNN2); test: Dose response counterscreen for EBI2 assay utilizing the enzyme, b-galactosidase.; type: functional
# [19] = target: Dual specificity protein phosphatase 3 (Homo sapiens, UniProt P51452); test: VHR phosphatase inhibition, dose response, selectivity assay for STEP inhibitor project, biochemical (AID 602374); type: functional; conditions: read-out: IC50_Mean
# [20] = target: Tyrosine-protein phosphatase non-receptor type 5 (Homo sapiens, UniProt P54829); test: PTPN5 enzyme inhibition – biochemical, fluorescence intensity, uHTS hits, confirmation (AID 602372); type: functional; conditions: read-out: IC50_Mean
# [21] = target: Tyrosine-protein phosphatase non-receptor type 11 (Homo sapiens, UniProt Q06124); test: PTPN11 enzyme inhibitors – biochemical, selectivity assay for STEP inhibitor project, dose response (AID 602367); type: functional; conditions: read-out: IC50_Mean
# [22] = target: T4, Tyrosine-protein phosphatase non-receptor type 22 (Homo sapiens, UniProt Q9Y2R2); test: lymphoid phosphatase LYP inhibitors – biochemical, selectivity assay for STEP inhibitor project, dose response (AID 624241); type: functional
# T4 sequence (Q9Y2R2 whole entry): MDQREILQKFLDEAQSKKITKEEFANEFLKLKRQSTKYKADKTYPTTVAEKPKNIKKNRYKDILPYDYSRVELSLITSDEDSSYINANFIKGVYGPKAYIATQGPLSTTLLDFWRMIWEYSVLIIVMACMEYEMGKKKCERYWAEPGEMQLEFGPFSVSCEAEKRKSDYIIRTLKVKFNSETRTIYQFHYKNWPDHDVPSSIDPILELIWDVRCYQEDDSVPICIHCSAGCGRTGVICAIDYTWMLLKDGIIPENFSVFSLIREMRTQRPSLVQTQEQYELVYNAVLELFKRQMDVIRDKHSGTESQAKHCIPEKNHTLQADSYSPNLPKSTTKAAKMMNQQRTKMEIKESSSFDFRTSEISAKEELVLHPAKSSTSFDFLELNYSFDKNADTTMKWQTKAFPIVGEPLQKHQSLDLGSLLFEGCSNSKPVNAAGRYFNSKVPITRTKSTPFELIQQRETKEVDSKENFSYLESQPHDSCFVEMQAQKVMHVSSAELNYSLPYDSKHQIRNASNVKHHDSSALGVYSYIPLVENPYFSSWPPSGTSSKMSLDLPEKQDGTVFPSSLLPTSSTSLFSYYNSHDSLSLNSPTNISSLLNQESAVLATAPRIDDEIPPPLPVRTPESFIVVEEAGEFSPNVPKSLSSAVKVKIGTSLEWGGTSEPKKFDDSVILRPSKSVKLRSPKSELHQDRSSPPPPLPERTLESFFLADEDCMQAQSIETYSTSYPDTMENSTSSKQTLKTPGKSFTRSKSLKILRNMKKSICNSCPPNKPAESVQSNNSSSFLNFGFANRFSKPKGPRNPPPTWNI
# [23] = toxicity toward HepG2 liver cells – cell-based, plate reader, cherry-pick, antagonist series, cytotoxicity control, dose response (AID 743416); type: functional
# [24] = A549 cell cytotoxicity, dose response, cytotoxicity control, plate reader, cherry-pick, antagonist series (AID 743412); type: functional, cell-based
# [25] = cells; remark: listed apart in the source
# [26] = blockade of melanocortin 4 receptor signaling – cell-based, plate reader, cherry pick, counter-screen for LGR2 antagonist project, dose response (AID 743444); type: functional;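 also: transfected HEK 293 cells stimulated with alpha-MSH peptide; potency of inhibitors of the alpha-MSH evoked signal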
# [27] = blockers of bursicon-stimulated LGR2 cAMP reporter – cell-based, HEK293, CRE-luciferase reporter, cherry pick, set 2, dose response (AID 743343); type: functional;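 also: transfected cells were stimulated with diluted bursicon conditioned medium after compound addition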
# [28] = viability loss in HEK293 cells – cell-based, plate reader, cherry-picked samples, cytotoxicity control, dose response (AID 743446); type: functional
# [29] = viability of uninfected HEp-2 cells – cell-based, HTS, cytotoxicity control for RSV inhibitor project, dose response (AID 2410); type: functional; conditions: human respiratory syncytial virus
# T2 sequence (P11940 whole entry): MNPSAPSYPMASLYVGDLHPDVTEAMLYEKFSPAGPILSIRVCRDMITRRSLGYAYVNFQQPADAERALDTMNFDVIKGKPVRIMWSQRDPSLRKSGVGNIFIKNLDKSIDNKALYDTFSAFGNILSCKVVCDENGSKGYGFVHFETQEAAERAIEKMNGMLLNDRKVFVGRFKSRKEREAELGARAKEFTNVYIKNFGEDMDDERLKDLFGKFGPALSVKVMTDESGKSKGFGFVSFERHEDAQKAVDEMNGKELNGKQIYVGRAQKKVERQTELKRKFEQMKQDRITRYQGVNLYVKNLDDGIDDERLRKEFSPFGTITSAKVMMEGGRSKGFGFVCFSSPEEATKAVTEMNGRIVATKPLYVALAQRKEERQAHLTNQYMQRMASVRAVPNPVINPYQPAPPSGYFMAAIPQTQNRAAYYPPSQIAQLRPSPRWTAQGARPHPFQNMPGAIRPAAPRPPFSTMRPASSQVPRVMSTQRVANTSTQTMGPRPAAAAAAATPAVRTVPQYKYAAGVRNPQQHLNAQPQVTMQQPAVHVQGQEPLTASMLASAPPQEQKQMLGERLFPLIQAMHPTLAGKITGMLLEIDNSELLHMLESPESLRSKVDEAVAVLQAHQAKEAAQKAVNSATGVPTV
# Tyrosine-protein phosphatase non-receptor type 5, sequence (P54829 whole entry): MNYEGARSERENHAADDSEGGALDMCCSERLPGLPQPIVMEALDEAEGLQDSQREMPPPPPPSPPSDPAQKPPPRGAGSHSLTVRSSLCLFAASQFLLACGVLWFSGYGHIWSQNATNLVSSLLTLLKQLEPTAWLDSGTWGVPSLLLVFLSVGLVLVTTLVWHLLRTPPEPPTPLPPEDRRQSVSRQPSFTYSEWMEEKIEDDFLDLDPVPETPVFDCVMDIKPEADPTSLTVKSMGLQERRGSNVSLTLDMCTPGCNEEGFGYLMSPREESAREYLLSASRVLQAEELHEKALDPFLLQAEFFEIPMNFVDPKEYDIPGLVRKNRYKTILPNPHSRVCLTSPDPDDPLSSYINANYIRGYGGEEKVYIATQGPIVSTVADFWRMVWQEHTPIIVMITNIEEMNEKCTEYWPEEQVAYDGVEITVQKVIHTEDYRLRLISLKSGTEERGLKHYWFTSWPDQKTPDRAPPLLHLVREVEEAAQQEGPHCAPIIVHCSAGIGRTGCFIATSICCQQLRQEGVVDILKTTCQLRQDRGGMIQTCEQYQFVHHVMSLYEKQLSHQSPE
# Dual specificity protein phosphatase 3, sequence (P51452 whole entry): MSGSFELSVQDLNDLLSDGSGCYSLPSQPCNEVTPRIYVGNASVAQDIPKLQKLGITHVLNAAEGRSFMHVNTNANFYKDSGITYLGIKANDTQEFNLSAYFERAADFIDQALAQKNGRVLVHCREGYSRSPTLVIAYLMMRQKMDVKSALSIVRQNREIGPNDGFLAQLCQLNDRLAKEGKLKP
# Oxysterols receptor LXR-beta, sequence (P55055 whole entry, the tested form may be a part): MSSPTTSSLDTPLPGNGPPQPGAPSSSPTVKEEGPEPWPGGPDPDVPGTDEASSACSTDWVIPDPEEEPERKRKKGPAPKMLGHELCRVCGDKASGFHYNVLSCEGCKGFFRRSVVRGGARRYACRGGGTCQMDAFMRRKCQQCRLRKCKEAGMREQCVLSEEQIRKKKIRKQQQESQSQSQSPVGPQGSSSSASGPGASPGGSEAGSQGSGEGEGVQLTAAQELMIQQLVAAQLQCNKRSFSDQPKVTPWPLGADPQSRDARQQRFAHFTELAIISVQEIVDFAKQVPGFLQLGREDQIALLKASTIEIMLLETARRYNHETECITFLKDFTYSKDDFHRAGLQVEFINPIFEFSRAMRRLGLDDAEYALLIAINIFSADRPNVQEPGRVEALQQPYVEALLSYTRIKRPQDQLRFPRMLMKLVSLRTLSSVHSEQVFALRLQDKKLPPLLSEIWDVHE
# Beta-galactosidase, sequence (Q8VNN2 whole entry): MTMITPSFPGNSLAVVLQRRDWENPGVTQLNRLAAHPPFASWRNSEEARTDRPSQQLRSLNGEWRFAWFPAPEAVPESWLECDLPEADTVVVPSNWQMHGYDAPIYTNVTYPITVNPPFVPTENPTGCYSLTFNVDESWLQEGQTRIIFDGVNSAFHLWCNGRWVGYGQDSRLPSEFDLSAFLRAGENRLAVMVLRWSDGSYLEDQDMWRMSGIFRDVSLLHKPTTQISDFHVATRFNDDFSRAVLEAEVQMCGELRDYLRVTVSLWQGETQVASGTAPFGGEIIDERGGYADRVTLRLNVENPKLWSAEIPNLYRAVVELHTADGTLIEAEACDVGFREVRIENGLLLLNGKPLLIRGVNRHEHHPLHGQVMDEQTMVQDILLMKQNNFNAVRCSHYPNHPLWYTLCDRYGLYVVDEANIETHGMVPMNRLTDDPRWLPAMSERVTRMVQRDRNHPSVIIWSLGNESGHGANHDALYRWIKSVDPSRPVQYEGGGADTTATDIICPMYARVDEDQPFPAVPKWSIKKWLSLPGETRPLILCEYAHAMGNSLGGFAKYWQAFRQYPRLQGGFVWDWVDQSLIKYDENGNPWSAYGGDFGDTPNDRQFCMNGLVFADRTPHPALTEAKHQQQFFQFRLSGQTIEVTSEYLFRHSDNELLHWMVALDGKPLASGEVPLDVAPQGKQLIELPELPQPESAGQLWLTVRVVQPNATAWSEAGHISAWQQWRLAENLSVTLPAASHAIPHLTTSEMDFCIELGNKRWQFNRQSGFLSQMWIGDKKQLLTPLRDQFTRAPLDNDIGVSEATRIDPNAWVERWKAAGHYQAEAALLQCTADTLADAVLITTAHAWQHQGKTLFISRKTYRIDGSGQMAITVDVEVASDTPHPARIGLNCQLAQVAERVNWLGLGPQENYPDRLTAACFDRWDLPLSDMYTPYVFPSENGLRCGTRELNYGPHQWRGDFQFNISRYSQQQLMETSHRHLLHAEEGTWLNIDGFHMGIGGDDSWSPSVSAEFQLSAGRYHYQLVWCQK
# 1-phosphatidylinositol 4,5-bisphosphate phosphodiesterase beta-3, sequence (Q01970 whole entry): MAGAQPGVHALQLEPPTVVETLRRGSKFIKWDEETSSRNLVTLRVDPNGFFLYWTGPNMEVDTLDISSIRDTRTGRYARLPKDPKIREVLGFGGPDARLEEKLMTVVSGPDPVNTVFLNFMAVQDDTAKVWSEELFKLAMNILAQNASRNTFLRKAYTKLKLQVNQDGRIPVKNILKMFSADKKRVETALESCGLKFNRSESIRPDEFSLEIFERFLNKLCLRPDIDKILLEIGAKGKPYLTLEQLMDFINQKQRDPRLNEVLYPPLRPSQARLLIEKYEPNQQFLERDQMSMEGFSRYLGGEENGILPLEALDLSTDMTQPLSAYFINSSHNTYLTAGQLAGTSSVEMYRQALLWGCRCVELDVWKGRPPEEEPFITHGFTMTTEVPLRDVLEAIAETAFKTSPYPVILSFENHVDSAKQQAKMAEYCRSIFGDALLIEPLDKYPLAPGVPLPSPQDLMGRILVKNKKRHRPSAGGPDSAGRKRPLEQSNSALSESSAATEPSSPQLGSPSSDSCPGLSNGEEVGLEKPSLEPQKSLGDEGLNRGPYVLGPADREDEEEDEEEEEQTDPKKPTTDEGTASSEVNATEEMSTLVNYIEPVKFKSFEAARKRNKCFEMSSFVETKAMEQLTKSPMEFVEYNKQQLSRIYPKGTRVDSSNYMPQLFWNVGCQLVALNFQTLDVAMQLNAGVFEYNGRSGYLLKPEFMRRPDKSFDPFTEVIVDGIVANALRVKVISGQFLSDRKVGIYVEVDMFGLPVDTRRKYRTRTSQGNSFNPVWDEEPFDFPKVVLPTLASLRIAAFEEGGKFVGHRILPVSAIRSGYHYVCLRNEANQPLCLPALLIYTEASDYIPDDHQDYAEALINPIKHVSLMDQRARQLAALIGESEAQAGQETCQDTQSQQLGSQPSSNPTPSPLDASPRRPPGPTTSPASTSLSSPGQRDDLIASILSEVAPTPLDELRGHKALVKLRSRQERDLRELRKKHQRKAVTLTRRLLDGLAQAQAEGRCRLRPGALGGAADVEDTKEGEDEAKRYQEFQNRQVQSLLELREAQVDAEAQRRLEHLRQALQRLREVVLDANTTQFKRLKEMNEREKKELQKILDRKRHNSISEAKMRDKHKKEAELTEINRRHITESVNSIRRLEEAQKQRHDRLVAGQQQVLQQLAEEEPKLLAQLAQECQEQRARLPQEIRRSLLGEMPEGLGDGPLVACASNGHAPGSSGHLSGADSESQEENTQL
# Tyrosine-protein phosphatase non-receptor type 11, sequence (Q06124 whole entry): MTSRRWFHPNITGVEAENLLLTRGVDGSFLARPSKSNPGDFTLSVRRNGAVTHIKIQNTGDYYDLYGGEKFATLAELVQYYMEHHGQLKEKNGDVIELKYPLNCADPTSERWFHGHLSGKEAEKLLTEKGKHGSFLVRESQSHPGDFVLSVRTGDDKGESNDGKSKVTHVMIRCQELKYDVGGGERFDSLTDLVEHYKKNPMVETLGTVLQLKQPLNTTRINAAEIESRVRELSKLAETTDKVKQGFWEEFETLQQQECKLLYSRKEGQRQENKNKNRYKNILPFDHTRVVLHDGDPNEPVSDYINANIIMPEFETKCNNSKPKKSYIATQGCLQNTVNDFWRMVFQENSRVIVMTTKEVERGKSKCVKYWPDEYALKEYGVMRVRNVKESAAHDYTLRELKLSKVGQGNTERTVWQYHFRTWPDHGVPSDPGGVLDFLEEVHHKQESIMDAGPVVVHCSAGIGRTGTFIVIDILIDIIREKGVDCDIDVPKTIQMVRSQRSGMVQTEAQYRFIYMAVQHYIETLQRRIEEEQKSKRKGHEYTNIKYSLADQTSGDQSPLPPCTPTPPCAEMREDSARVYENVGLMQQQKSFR
smiles,measurement,setting,value
CC/C(NCc1ccco1)=C1/C(=O)NC(=O)N(C2CCCCC2)C1=O,EC50,[1],> 260 µM (inactive)
same,IC50,[2],> 122 µM (inactive)
same,IC50,[3],> 122 µM (inactive)
Cc1cccnc1NC(=S)NC(=O)c1cccs1,EC50,[4],0.19 µM (active)
same,EC50,[5],0.464 µM (active)
same,EC50,[6],14.9 µM (active)
same,EC50,[7],< 0.1 µM (active)
same,IC50,[8],> 66 µM (inactive)
same,EC50,[9],0.161 µM (active)
same,IC50,[10],> 66 µM (inactive)
same,EC50,[11],> 67.5 µM (inactive)
same,EC50,[12],> 67.5 µM (inactive)
CCc1ccccc1S(=O)(=O)Cc1ccc(C(=O)NCCc2ccccc2)o1,EC50,[13],> 29.9 µM (inactive)
same,IC50,[14],20 µM (inactive)
same,IC50,[15],6.38 µM (active)
same,EC50,[16],4.46 µM (active)
COc1ccc(-c2c(C(C)=O)c(C)nc3sc4c(c23)NC(c2ccccc2)NC4=O)cc1 (stereo unspecified),AC50,[17],2.66 µM (active)
CCCCCn1c(=O)[nH]c2cc(C(=O)NCCN3C(C)CCCC3C)ccc2c1=O (stereo unspecified),AC50,[17],2.22 µM (active)
O=C(COc1ccc(Cl)cc1)N1CCN(Cc2ccccc2)CC1,IC50,[18],> 80 µM (inactive)
COc1cc(/C=C2/SC(=S)N(CC(=O)O)C2=O)ccc1OCC(=O)Nc1ccc(C)c(C)c1,IC50,[19],4.32 µM (active)
same,IC50,[20],6.72 µM (active)
same,IC50,[21],3.64 µM (active)
same,IC50,[22],16.5 µM (active)
COc1ccc(CCNC(=O)C2CCN(S(=O)(=O)c3ccc(Cl)cc3)CC2)cc1OC,AC50,[23],35.2 µM (active)
same,AC50,[24],35.3 µM (active)
COc1ccccc1N(Cc1ccccc1)S(=O)(=O)c1cccc(C(=O)Nc2cc(C)ccn2)c1,AC50,[24],32.2 µM (active)
same,IC50,[25],38.5 µM (active)
same,AC50,[26],3.95 µM (active)
same,AC50,[27],4.92 µM (active)
same,AC50,[28],4.09 µM (active)
same,CC50,[29],21.8 µM (active)
